Test [1] concerns the target T1, aurora2 kinase (Homo sapiens, UniProt O14965).
T1 construct: made in house; host or cells: Spodoptera frugiperda Sf21 insect cells (baculovirus, pFastBac HTc)
T1 sequence (O14965 1-403): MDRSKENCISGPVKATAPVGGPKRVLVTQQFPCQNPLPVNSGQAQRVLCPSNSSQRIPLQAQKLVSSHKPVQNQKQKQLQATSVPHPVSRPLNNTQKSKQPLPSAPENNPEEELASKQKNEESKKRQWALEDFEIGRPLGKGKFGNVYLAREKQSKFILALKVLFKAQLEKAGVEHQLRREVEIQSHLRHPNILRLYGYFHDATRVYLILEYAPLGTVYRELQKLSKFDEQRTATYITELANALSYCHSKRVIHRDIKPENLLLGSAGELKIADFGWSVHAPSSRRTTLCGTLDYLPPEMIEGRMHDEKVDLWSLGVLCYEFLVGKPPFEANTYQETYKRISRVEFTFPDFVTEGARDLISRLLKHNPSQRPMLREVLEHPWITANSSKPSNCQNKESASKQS
The test is described as follows: In vitro aurora2 kinase inhibition test. The class given is biochemical.

The test system of test [2] is MCF-7 cells. The test is described as follows: In vitro cell proliferation assay 1 (CyQUANT cell density). The class given is cell-based. As to conditions: Homo sapiens, MCF7, 72 h; MCF-7, 3 days with compound, CyQUANT fluorescence; read-out: concentration giving 50% inhibition of cell proliferation. The text has this: (§1) (b) In Vitro Cell Proliferation Assays
(§2) These and other assays can be used to determine the ability of a test compound to inhibit the growth of adherent mammalian cell lines, for example the human tumour cell line MCF7.
MCF-7 (ATCC HTB-22) or other adherent cells were typically seeded at 1×10^3 cells per well (excluding the peripheral wells) in DMEM (Sigma Aldrich) without phenol red, plus 10% foetal calf serum, 1% L-glutamine and 1% penicillin/streptomycin in 96 well tissue culture treated clear plates (Costar). The following day (day 1), the media was removed from a no treatment control plate and the plate stored at −80° C. […] The fluorescence of the wells was then measured using a fluorescence microplate reader (gain 70, 2 reads per well, 1 cycle with excitation 485 nm and emission 530 nm using a CytoFluor plate reader (PerSeptive Biosystems Inc.)). […]

Test [3] deals with MCF-7 cells. The test is described as follows: In vitro cell proliferation assay II (BrdU incorporation). The class given is cell-based. As to conditions: Homo sapiens, MCF7; MCF-7, 48 hours with compound, 2 hour BrdU labelling, ELISA; read-out: concentration giving 50% inhibition of BrdU incorporation.
Text: as §1, §2
This assay determines the ability of at test compound to inhibit the incorporation of the thymidine analogue, 5′-bromo-2′-deoxy-uridine (BrdU) into cellular DNA. MCF-7 or other adherent cells were typically seeded at 0.8×10^4 cells per well in DMEM (Sigma Aldrich) without phenol red, plus 10% foetal calf serum, 1% L-glutamine and 1% penicillin/streptomycin (50 μl/well) in 96 well tissue culture treated 96 well plates (Costar) and allowed to adhere overnight. […] The optical density of the wells was then determined at 690 nm wavelength using a Titertek Multiscan plate reader. […]
In general terms: Incorporation of labelled thymidine or its analogues reports DNA synthesis.

Consider `COc1cc2c(Nc3cnc(NC(=O)c4ccccc4)nc3)ccnc2cc1OCCCN1CCOCC1` [Compound 2], for which the IC50 in test [1] was found to be 59.2 nM; in test [2], 456 nM; in test [3], 460 nM.
Turning to `O=C(Nc1ncc(Nc2ccnc3cc(OCCCN4CCOCC4)ccc23)cn1)c1ccccc1` [Compound 4], the IC50 in test [1] stood at 78.5 nM; in test [2] it was 185 nM; in test [3], 190 nM.
